From ChEMBL document CHEMBL5291721, “A preclinical secondary pharmacology resource illuminates target-adverse drug reaction associations of marketed drugs” (Nat Commun, 2023)

Columns and labels:
B1 bradykinin receptor = molecular target: T1, B1 bradykinin receptor (Homo sapiens, UniProt P46663)
T1 sequence (P46663 whole entry): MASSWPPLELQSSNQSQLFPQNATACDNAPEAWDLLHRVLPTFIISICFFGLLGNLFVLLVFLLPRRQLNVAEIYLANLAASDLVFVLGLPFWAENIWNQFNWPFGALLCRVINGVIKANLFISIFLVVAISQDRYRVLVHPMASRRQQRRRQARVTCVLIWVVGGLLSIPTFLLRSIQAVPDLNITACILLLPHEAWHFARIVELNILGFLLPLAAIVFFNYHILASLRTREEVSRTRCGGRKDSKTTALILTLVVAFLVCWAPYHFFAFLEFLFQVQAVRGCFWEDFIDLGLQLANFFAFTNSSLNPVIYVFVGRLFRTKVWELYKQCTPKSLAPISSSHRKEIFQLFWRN

Estrogen receptor beta = Estrogen receptor beta (Homo sapiens, UniProt Q92731)
Estrogen receptor beta, sequence (Q92731 whole entry): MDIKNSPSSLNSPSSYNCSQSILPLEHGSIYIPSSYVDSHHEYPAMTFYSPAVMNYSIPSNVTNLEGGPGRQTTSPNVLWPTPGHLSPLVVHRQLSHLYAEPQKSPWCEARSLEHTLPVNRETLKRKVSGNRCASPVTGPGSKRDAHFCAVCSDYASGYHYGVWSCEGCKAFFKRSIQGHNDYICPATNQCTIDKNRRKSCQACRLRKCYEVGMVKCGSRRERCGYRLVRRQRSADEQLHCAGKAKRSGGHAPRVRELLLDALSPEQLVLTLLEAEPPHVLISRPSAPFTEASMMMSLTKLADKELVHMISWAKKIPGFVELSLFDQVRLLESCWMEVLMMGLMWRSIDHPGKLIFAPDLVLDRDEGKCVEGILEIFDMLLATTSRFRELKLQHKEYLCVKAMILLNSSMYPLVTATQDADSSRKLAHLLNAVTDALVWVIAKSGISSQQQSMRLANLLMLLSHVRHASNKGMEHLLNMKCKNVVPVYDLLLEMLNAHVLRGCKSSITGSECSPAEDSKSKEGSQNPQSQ

[1] = molecular target: T2, Gastric inhibitory polypeptide receptor (Homo sapiens, UniProt P48546)
T2 sequence (P48546 whole entry): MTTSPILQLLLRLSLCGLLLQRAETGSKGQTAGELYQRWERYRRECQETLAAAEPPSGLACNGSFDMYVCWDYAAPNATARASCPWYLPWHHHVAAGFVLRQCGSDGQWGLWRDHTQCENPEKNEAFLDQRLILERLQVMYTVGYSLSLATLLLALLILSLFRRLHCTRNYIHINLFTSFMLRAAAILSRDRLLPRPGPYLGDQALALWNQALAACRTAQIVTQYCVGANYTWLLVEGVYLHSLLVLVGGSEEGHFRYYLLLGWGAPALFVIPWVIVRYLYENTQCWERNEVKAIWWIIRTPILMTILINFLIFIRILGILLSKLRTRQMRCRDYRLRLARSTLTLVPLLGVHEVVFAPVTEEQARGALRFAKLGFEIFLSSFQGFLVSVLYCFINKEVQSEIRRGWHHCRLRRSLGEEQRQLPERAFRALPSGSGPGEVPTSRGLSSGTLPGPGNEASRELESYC

[2] = molecular target: Neurotensin receptor type 1 (Homo sapiens, UniProt P30989)
Neurotensin receptor type 1, sequence (P30989 whole entry): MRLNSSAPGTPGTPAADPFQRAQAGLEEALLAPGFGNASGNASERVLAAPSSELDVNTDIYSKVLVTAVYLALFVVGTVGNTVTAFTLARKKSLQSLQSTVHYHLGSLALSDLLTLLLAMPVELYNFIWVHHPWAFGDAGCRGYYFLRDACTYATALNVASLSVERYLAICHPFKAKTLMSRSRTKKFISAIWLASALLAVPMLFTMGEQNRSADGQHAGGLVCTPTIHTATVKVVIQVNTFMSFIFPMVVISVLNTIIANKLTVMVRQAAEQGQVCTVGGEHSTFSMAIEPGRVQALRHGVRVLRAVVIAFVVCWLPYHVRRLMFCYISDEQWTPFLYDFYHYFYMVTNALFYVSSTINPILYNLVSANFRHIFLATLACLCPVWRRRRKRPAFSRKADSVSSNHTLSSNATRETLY

[3] = molecular target: Sodium channel protein type 5 subunit alpha (Homo sapiens, UniProt Q14524); format: functional, cell-based
Substance-P receptor = Substance-P receptor (Homo sapiens, UniProt P25103)
Substance-P receptor, sequence (P25103 whole entry): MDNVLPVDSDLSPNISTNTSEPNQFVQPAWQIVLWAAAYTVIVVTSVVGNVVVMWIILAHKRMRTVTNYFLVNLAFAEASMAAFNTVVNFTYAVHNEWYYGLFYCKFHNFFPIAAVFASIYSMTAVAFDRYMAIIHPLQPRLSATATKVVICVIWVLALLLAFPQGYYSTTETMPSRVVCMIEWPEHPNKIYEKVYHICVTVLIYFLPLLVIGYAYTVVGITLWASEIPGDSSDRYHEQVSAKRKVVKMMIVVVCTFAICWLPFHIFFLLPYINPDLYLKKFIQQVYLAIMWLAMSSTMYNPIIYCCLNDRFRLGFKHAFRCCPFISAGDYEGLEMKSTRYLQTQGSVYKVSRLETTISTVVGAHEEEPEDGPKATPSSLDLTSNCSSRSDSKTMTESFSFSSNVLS

[4] = molecular target: T3, Muscarinic acetylcholine receptor M4 (Homo sapiens, UniProt P08173)
T3 sequence (P08173 whole entry): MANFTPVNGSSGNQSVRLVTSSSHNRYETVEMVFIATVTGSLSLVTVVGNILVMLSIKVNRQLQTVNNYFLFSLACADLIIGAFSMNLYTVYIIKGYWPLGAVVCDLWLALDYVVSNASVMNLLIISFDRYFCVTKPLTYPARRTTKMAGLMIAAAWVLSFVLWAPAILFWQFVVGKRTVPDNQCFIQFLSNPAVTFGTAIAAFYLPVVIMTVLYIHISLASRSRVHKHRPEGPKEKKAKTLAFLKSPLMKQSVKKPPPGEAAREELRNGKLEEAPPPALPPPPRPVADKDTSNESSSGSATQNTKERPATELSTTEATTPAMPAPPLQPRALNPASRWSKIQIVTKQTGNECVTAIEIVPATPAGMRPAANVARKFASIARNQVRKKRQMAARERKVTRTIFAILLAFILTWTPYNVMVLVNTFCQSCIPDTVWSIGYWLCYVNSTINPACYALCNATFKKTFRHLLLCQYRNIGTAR

[5] = molecular target: 5-hydroxytryptamine receptor 2B (Homo sapiens, UniProt P41595)
5-hydroxytryptamine receptor 2B, sequence (P41595 whole entry): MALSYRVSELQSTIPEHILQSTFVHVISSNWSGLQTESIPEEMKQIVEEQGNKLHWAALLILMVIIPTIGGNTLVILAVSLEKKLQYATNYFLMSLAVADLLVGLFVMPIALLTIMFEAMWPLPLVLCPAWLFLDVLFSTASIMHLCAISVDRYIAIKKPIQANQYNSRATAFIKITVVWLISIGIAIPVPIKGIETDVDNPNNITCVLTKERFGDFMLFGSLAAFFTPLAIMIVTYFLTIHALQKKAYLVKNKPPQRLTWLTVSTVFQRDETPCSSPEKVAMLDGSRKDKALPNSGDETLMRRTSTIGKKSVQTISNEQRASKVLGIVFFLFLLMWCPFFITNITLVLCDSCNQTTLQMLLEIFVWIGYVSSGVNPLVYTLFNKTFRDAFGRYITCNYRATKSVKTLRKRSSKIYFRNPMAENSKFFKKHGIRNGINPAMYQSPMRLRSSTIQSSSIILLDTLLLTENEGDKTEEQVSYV

[6] = molecular target: T4, Muscarinic acetylcholine receptor M2 (Homo sapiens, UniProt P08172)
T4 sequence (P08172 whole entry): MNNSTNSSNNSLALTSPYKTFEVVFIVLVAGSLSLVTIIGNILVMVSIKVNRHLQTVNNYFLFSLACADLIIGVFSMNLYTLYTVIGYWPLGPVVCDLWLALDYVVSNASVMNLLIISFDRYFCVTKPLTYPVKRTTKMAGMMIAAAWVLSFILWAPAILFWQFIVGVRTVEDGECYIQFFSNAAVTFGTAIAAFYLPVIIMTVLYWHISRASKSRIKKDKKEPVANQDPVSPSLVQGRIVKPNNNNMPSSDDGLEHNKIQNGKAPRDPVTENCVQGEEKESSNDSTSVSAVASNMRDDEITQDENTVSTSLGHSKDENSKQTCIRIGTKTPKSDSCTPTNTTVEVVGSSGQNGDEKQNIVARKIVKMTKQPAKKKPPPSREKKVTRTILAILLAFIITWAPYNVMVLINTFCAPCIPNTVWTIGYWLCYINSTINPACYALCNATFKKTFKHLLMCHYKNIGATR

[7] = molecular target: Gamma-aminobutyric acid receptor subunit alpha-1/alpha-2/beta-2/gamma-2 (Homo sapiens, UniProt P14867+P18507+P47869+P47870); format: functional, cell-based
Gamma-aminobutyric acid receptor subunit alpha-1/alpha-2/beta-2/gamma-2, sequence (P14867 whole entry): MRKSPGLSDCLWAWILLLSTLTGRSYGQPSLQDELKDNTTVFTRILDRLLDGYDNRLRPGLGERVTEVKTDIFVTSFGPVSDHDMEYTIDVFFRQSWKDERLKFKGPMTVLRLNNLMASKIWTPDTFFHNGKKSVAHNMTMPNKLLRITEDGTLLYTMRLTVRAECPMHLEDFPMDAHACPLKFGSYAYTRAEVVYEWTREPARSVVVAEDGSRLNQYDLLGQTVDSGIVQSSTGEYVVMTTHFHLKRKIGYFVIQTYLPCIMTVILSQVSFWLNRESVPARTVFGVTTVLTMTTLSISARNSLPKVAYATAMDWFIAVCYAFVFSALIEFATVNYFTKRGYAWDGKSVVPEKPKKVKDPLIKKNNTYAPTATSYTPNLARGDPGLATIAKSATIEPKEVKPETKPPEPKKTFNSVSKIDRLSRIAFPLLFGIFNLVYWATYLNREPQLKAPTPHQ
Gamma-aminobutyric acid receptor subunit alpha-1/alpha-2/beta-2/gamma-2, sequence (P47870 whole entry): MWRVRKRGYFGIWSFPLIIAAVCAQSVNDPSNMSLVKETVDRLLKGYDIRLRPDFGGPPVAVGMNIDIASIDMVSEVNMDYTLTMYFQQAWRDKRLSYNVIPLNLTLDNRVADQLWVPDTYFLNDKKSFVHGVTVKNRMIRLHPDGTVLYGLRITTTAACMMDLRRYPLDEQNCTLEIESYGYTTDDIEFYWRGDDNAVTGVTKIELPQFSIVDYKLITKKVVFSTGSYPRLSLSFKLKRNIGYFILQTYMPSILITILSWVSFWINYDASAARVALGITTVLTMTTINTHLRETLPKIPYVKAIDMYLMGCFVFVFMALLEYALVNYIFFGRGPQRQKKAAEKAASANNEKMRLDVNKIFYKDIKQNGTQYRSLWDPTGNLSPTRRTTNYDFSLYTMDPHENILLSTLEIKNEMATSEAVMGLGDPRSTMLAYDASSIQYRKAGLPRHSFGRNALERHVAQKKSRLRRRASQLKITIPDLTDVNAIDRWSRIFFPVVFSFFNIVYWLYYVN
Gamma-aminobutyric acid receptor subunit alpha-1/alpha-2/beta-2/gamma-2, sequence (P18507 whole entry): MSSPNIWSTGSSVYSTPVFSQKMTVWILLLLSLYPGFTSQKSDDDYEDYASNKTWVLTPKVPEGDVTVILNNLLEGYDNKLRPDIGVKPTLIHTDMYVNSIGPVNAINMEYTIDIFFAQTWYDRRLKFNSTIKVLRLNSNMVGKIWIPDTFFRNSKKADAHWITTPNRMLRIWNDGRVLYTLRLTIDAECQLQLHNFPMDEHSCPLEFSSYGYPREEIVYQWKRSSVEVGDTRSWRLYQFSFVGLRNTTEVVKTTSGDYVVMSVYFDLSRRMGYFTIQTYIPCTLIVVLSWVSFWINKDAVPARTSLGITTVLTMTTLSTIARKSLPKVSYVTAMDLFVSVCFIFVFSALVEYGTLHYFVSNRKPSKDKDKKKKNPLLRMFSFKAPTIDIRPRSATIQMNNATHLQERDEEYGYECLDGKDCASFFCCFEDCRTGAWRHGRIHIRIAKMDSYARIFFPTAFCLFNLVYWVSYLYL
Gamma-aminobutyric acid receptor subunit alpha-1/alpha-2/beta-2/gamma-2, sequence (P47869 whole entry): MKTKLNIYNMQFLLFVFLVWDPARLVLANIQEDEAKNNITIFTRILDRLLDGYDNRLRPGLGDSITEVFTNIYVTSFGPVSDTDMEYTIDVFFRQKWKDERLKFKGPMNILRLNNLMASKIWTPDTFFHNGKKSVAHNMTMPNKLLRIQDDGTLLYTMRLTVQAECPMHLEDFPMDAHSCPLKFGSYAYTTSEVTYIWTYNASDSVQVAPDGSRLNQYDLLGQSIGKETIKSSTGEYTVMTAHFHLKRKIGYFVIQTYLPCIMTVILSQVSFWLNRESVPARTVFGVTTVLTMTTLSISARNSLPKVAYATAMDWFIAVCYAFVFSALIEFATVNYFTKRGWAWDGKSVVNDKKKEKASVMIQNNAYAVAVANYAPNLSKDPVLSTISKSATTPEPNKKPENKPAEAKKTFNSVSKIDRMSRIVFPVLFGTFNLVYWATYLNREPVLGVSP

Histamine H1 receptor = Histamine H1 receptor (Homo sapiens, UniProt P35367); format: functional, cell-based
Histamine H1 receptor, sequence (P35367 whole entry): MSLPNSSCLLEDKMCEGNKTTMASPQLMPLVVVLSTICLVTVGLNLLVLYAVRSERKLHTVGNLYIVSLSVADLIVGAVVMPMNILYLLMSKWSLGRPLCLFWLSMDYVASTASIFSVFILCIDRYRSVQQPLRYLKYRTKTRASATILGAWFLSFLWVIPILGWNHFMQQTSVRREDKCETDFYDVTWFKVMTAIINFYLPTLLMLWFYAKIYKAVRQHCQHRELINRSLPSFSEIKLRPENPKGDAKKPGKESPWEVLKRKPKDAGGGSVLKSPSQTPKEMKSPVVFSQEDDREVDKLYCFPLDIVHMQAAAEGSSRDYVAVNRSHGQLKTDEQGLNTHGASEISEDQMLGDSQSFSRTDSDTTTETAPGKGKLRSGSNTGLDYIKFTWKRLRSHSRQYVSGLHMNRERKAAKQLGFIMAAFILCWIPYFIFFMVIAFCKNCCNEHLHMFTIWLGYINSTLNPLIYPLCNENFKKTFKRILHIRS

[8] = molecular target: T5, Alpha-1A adrenergic receptor (Homo sapiens, UniProt P35348)
T5 sequence (P35348 whole entry): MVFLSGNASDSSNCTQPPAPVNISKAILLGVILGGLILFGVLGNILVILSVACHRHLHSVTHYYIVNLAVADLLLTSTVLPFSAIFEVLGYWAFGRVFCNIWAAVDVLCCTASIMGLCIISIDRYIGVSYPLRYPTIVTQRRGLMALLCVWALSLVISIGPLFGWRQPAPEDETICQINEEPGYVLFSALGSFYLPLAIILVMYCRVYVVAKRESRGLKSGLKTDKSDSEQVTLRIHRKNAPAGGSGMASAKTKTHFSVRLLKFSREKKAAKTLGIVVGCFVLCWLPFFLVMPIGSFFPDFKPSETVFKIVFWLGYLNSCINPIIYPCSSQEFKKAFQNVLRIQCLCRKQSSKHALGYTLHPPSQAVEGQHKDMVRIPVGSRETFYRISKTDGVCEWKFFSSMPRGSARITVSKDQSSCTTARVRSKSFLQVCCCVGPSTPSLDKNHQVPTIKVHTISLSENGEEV
Note: assay procedure not described here.

| SMILES | AC50 (B1 bradykinin receptor) | AC50 [2] | AC50 [3] | AC50 [5] | AC50 [6] | also measured |
| --- | --- | --- | --- | --- | --- | --- |
| O=C(O)COCCN1CCN(C(c2ccccc2)c2ccc(Cl)cc2)CC1 (stereo not given) [CETIRIZINE] | > 30 µM | > 30 µM | > 30 µM | – | – | AC50 (Estrogen receptor beta): > 30 µM; AC50 [1]: > 30 µM; AC50 (Substance-P receptor): > 10 µM |
| C[C@@H]1C[C@H]2[C@@H]3C[C@H](F)C4=CC(=O)C=C[C@]4(C)[C@@]3(F)[C@@H](O)C[C@]2(C)[C@@]1(OC(=O)c1ccco1)C(=O)SCF [FLUTICASONE FUROATE] | > 10 µM | – | – | > 10 µM | > 10 µM | AC50 [4]: > 10 µM |
| OC[C@H]1O[C@@H](n2cnc3c2NC=NC[C@H]3O)C[C@@H]1O [PENTOSTATIN] | – | – | – | – | – | AC50 [7]: > 30 µM; AC50 (Histamine H1 receptor): > 30 µM |
| CCCN1CC(NS(=O)(=O)N(CC)CC)CC2Cc3c(O)cccc3CC21 (stereo not given) [QUINAGOLIDE] | – | – | – | 0.324 µM | – | – |
| NC[C@H]1CC[C@H](C(=O)Oc2ccc(CCC(=O)O)cc2)CC1 [CETRAXATE] | – | – | – | – | – | AC50 [8]: > 30 µM |
| CN(C)C/C=C/C(=O)Nc1cc2c(Nc3ccc(F)c(Cl)c3)ncnc2cc1O[C@H]1CCOC1 [AFATINIB] | – | – | > 50 µM | – | – | AC50 [7]: > 30 µM; AC50 (Histamine H1 receptor): > 30 µM |
| CC(O)(CS(=O)(=O)c1ccc(F)cc1)C(=O)Nc1ccc(C#N)c(C(F)(F)F)c1 (stereo not given) [BICALUTAMIDE] | > 30 µM | > 30 µM | > 30 µM | > 10 µM | > 10 µM | AC50 (Estrogen receptor beta): > 30 µM; AC50 [1]: > 30 µM; AC50 (Substance-P receptor): > 10 µM |
| CN[C@@H](C)[C@@H](O)c1ccccc1 [PSEUDOEPHEDRINE] | > 30 µM | > 30 µM | – | – | > 10 µM | AC50 (Estrogen receptor beta): > 30 µM; AC50 [1]: > 30 µM; AC50 (Substance-P receptor): > 10 µM |
| COc1ccc2c(C(=S)N(C)CC(=O)O)cccc2c1C(F)(F)F [TOLRESTAT] | – | – | – | – | – | AC50 [8]: > 30 µM |
| CN(C)CCCN1c2ccccc2CCc2ccccc21 [IMIPRAMINE] | > 30 µM | > 30 µM | – | 0.319 µM | 0.454 µM | AC50 [4]: 1.07 µM; AC50 (Estrogen receptor beta): > 30 µM; AC50 [1]: > 30 µM; AC50 (Substance-P receptor): > 10 µM |
| CN(Cc1cnc2nc(N)nc(N)c2n1)c1ccc(C(=O)N[C@@H](CCC(=O)O)C(=O)O)cc1 [METHOTREXATE] | > 30 µM | > 30 µM | – | > 10 µM | > 10 µM | AC50 (Estrogen receptor beta): > 30 µM; AC50 [1]: > 30 µM |
| CC(=O)O[C@]1(C(C)=O)CC[C@H]2[C@@H]3C=C(Cl)C4=CC(=O)[C@@H]5C[C@@H]5[C@]4(C)[C@H]3CC[C@@]21C [CYPROTERONE ACETATE] | – | – | – | > 10 µM | > 10 µM | – |
| Cc1cccc(C)c1NC(=O)CC12CCCN1CCC2 [PILSICAINIDE] | – | – | > 50 µM | – | – | – |
| CCOC(=O)C1=C(C)NC(C)=C(C(=O)OCC)C1c1ccccc1/C=C/C(=O)OC(C)(C)C [LACIDIPINE] | – | – | > 50 µM | – | – | – |
| O=S1(=O)CCN(CN2CCS(=O)(=O)NC2)CN1 [TAUROLIDINE] | – | – | – | – | – | AC50 [8]: > 30 µM; AC50 [7]: > 30 µM; AC50 (Histamine H1 receptor): > 30 µM |
| O=C(/C=C/c1cccc(S(=O)(=O)Nc2ccccc2)c1)NO [BELINOSTAT] | > 10 µM | > 10 µM | – | > 10 µM | > 10 µM | AC50 [8]: > 30 µM; AC50 [4]: > 10 µM; AC50 (Substance-P receptor): > 10 µM |
| CC1=C(C(=O)OC(C)C)C(c2cccc([N+](=O)[O-])c2)C(C(=O)OC2CN(C(c3ccccc3)c3ccccc3)C2)=C(N)N1 (stereo not given) [AZELNIDIPINE] | – | – | > 50 µM | – | – | – |
| C[C@H](CCC(=O)O)[C@H]1CC[C@H]2[C@@H]3[C@H](O)C[C@@H]4C[C@H](O)CC[C@]4(C)[C@H]3C[C@H](O)[C@]12C [CHOLIC ACID] | – | – | > 50 µM | – | – | – |
| CNCCc1ccc(OC(=O)C(C)C)c(OC(=O)C(C)C)c1 [IBOPAMINE] | – | – | – | – | – | AC50 [7]: > 30 µM |
| O=C1OC(OC(=O)c2cccnc2Nc2cccc(C(F)(F)F)c2)c2ccccc21 (stereo not given) [TALNIFLUMATE] | – | – | – | – | – | AC50 [7]: > 30 µM; AC50 (Histamine H1 receptor): > 30 µM |
